system: ROS-1 osteosarcoma; test: Tumor growth of ROS-1 osteosarcoma in hindlimb after ILP or intra-tumoral injection; type: in vivo; conditions: ROS-1, ILP 15 minutes, 1.10^9 iu vector plus 50 μg TNFα, 40 μg melphalan or 200 μg doxorubicin per rat
Method: The rapidly growing ROS-1 osteosarcoma originated spontaneously in the tibia of a Wag/Rij rat (Barendsen et al. (1987)). The ROS-1 was implanted subcutaneously in the flank of donor Wag/Rij rats and passaged serially. The ROS-1 has a tumor doubling time of 5 days.
Fragments of the BN175 or ROS-1 (osteo)sarcoma were subcutaneously implanted into the right hindlimb of the experimental animals just above the ankle. The tumor size was measured regularly by caliper measurement in two dimensions. When the tumor reached a volume of 180-524 mm^3 (diameter between 7 and 10 mm) an isolated limb perfusion (ILP) with the recombinant adenoviral vector was performed. As a control, tumor bearing rats underwent ILP without the addition of said recombinant adenoviral vectors (termed sham ILP). An other group of tumor bearing rats underwent a direct intra-tumor injection with said recombinant adenoviral vector. The tumor volume was between 180-524 mm^3). After ILP or direct intra-tumor injection the tumor size was measured every (mon-fri)day.
Surgical procedures were performed under Hypnorm anaesthesia. […] After an incision parallel to the inguinal ligament the femoral and vein were approached and cannulated with silastic tubing (0.30 mm ID, 0.64 mm OD; 0.64 mm, 1.19 OD, respectively, Degania Silicone, Degania Bet, Israel). Collaterals were temporarily occluded by the application of a tourniquet around the groin, which was fixed to the inguinal ligament. An oxygenation reservoir and a roller pump (Masterflex) were included in the vascularly isolated circuit, which was, initially, perfused with haemaccel (Behring Pharma, Amsterdam, The Netherlands) for 3 minutes at a flow speed of 2 ml/min to wash out the blood. After the first wash out step, recirculation was performed with recombinant adenoviruses (50 μl-1 ml, containing approximately 10^9 infectious units (i.u.)) dissolved in 2.5-3.5 ml Haemaccel at the same flow rate for a time period ranging from 5 to 30 minutes. Followed by a second perfusion step of 5 minutes to wash out the non-bound virus with Haemaccel. […]

| Compound | effect of addition to the IG.Ad.CMV.rIL-3 perfusion on the antitumor response |
| --- | --- |
| N[C@@H](Cc1ccc(N(CCCl)CCCl)cc1)C(=O)O [melphalan] | does not influence the antitumor response |
| TNFα | does not influence the antitumor response |
| COc1cccc2c1C(=O)c1c(O)c3c(c(O)c1C2=O)C[C@@](O)(C(=O)CO)C[C@@H]3O[C@H]1C[C@H](N)[C@H](O)[C@H](C)O1 [doxorubicin] | does not influence the antitumor response |

Source: US6495131B1, “Interleukin-3 gene therapy for cancer” (priority 1998, dated 2002)
